Results on eleven compounds are retold here after ChEMBL document CHEMBL1201862, “PubChem BioAssay data set” (2004).

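Compound exposure: 48 hours, 5 concentrations, 96-well plates. Here, GI50 denotes the concentration required for 50% inhibition of growth.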 Calls of active or inactive are those of the source. Cut-off read from the data, not from the text of the source: active = GI50 up to about 1.1 µM and inactive = higher.

What all share (experiment): growth of human tumour cells (NCI), 48 h
Assay [1] has as its system PC-3.
The test system of assay [2] is Malme-3M.
Assay [3] concerns NCI-H23.
The test system of assay [4] is TK-10.
Assay [5] deals with ACHN.
Assay [6] relates to HCT-116.
Assay [7] deals with MCF7.
Assay [8] relates to RXF 393.
Assay [9] deals with LOX IMVI.
For assay [10], the system named is SN12C.
The test system of assay [11] is MOLT-4.
Assay [12] has as its system HOP-62.
In assay [13] the test system is UO-31.
Assay [14] concerns SW-620.
The test system of assay [15] is UACC-257.
Assay [16] concerns HOP-92.
Assay [17] deals with Hs-578T.
Assay [18] has as its system RPMI-8226.
The test system of assay [19] is OVCAR-3.

As to `O=[N+]([O-])c1cccc(-c2cn3c(n2)Cc2ccccc2C3)c1`, the GI50 was 77.4 µM (inactive) in assay [1]; > 100 µM (inactive) in assay [2]; 59.6 µM (inactive) in assay [3]; > 100 µM (inactive) in [4]; > 100 µM (inactive) in assay [5]; 23.9 µM (inactive) in assay [6]. Also, the GI50 in assay [7] is 3.88 µM (inactive); in assay [8] it was > 100 µM (inactive); in [9], 39.8 µM (inactive); in [10] it was > 100 µM (inactive); in assay [11], 9.68 µM (inactive); in assay [12], 29.1 µM (inactive). Besides, the GI50 is 51.2 µM (inactive) in [13]; > 100 µM (inactive) in [14]; 87.3 µM (inactive) in [15]; > 100 µM (inactive) in [16]; 85.3 µM (inactive) in assay [17].

For the compound `CC(=O)NC1=CC(=O)C=C(Cl)C1=O`, the GI50 was > 100 µM (inactive) in assay [1]; 22.6 µM (inactive) in assay [18]; 25.7 µM (inactive) in assay [2]; 43.9 µM (inactive) in assay [3]; > 100 µM (inactive) in assay [19]; > 100 µM (inactive) in assay [4]. For the same compound, the GI50 in assay [5] is > 100 µM (inactive); in assay [6], > 100 µM (inactive); in [7], 28.7 µM (inactive); in [8], 92.5 µM (inactive); in assay [10], > 100 µM (inactive); in assay [11], 22.2 µM (inactive). The GI50 in assay [12] is > 100 µM (inactive); in assay [13] it was > 100 µM (inactive); in assay [14], 19 µM (inactive); in assay [15], 54.1 µM (inactive); in assay [16], > 100 µM (inactive); in assay [17], > 100 µM (inactive).

As to `COc1ccc(O)c(/C=N/CCC/N=C/c2cc(OC)ccc2O)c1`, the GI50 is 24.5 µM (inactive) in assay [1]; 11.7 µM (inactive) in assay [18]; 13.7 µM (inactive) in [2]; 43.5 µM (inactive) in assay [3]; 6.59 µM (inactive) in assay [19]; 34.9 µM (inactive) in assay [4]. The GI50 in assay [5] is 24.7 µM (inactive); in assay [6], 40.8 µM (inactive); in assay [7] it was 20.9 µM (inactive); in assay [8] it was 25.6 µM (inactive); in [10], 30 µM (inactive); in assay [11] it was 16.6 µM (inactive). The GI50 in assay [12] is 52.1 µM (inactive); in assay [13], 33.5 µM (inactive); in assay [14], 39 µM (inactive); in assay [15], 23.7 µM (inactive); in assay [16] it was 20.2 µM (inactive); in [17] it was 24.5 µM (inactive).

Turning to `Cc1cc2c(c(C(=O)NCCC(=O)O)c1)Oc1c(cc(C)cc1C(=O)NCCC(=O)O)S2`, the GI50 in [1], in assay [18], in [2], in [3], in assay [19] and in [4] was > 100 µM (inactive) each time. Further, the GI50 in assay [5], in assay [6], in [7], in assay [8], in assay [9] and in assay [10] was > 100 µM (inactive) in each case. Moreover, the GI50 in assay [11], in [12], in assay [14], in assay [15], in [16] and in [17] was > 100 µM (inactive) in each case.

On to `Cc1cc(Cl)ccc1NC(=O)/C(CC(=O)CC(c1ccccc1)c1c(O)c2ccccc2oc1=O)=N\O` (stereo not drawn), for which the GI50 in [1], in [3], in assay [19], in assay [4], in assay [5] and in assay [6] was > 100 µM (inactive) each time. Moreover, the GI50 in assay [7], in assay [8], in assay [9], in assay [10], in assay [11] and in assay [12] was > 100 µM (inactive) each time. For the same compound, the GI50 was 65 µM (inactive) in assay [13]; > 100 µM (inactive) in assay [14]; > 100 µM (inactive) in [15]; 39.2 µM (inactive) in assay [16]; > 100 µM (inactive) in assay [17].

Turning to `N=c1c2c3n(c4c(=O)n(-c5ccccc5)c(=S)n(c(=O)n1-c1ccccc1)c24)CCCCC3`, the GI50 in assay [1], in assay [2], in assay [3], in [19], in assay [4] and in assay [5] was > 100 µM (inactive) in each case. Moreover, the GI50 in assay [6] was > 100 µM (inactive); in [7], > 100 µM (inactive); in [8], > 75.7 µM (inactive); in assay [9], > 100 µM (inactive); in assay [10], > 100 µM (inactive); in [12] it was 99.3 µM (inactive). Moreover, the GI50 in assay [13], in assay [14], in assay [15], in assay [16] and in assay [17] was > 100 µM (inactive) in each case.

Turning to `CCOC(=O)c1nc2cc(N3CCOCC3)c(F)cc2[nH]c1=O`, the GI50 in [1], in [18], in assay [2], in [3], in assay [19] and in assay [4] was > 100 µM (inactive) throughout. Also, the GI50 in [5], in assay [6], in [7], in [8], in [10] and in [11] was > 100 µM (inactive) each time. In addition, the GI50 in [12] was 57.5 µM (inactive); in [13] it was 35.2 µM (inactive); in assay [14] it was > 100 µM (inactive); in assay [15], > 100 µM (inactive); in [16], 37.9 µM (inactive); in assay [17], 33.4 µM (inactive).

`CCSc1nc(C)nc2c1sc1nc3ccccc3n12`: the GI50 in [1], in assay [18], in assay [3], in [19], in [4] and in assay [5] was > 100 µM (inactive) each time. In addition, the GI50 in assay [6], in [7], in [8], in assay [9], in assay [10] and in assay [11] was > 100 µM (inactive) throughout. Moreover, the GI50 in [13] was > 100 µM (inactive); in assay [14], > 100 µM (inactive); in assay [15], > 100 µM (inactive); in assay [16], > 100 µM (inactive); in assay [17] it was 24.2 µM (inactive).

Take `CSc1nc(SC)c2c(C)cn(COCCOC(=O)c3ccccc3)c2n1`: the GI50 was 74.5 µM (inactive) in assay [1]; 69.5 µM (inactive) in assay [18]; > 100 µM (inactive) in [2]; > 100 µM (inactive) in [3]; > 100 µM (inactive) in assay [19]; > 100 µM (inactive) in [4]. The GI50 was > 100 µM (inactive) in assay [5]; 83 µM (inactive) in assay [6]; 76.4 µM (inactive) in [7]; 82.6 µM (inactive) in [8]; 58.2 µM (inactive) in assay [9]; > 100 µM (inactive) in [10]. Also, the GI50 in assay [11] was 59.6 µM (inactive); in [12], > 100 µM (inactive); in [13], 44.3 µM (inactive); in [14], > 100 µM (inactive); in assay [16], 41.5 µM (inactive); in [17], 54.1 µM (inactive).

On to `CC(C)(C)OC(=O)NCCC(N)=S`, for which the GI50 in [1], in assay [18], in assay [2], in [3], in assay [19] and in assay [4] was > 100 µM (inactive) throughout. For the same compound, the GI50 in assay [5], in [6], in assay [7], in [8], in assay [10] and in [11] was > 100 µM (inactive) throughout. Moreover, the GI50 in [12], in [13], in assay [14], in assay [15], in assay [16] and in assay [17] was > 100 µM (inactive) throughout.

`C/C1=C/C(=O)O[C@@H]2C[C@@H](CC[C@H](C)/C=C\C=C\CC1)O[C@@](O)([C@@H]1CSC(=O)N1)C2` [LATRUNCULIN A]: the GI50 in assay [1] was 0.299 µM (active); in assay [18], > 10 µM (inactive); in [2], 0.895 µM (active); in [3], 2.14 µM (inactive); in assay [19], 1.03 µM (active); in assay [4], 0.264 µM (active). Further, the GI50 in [5] was 0.313 µM (active); in [6], 0.773 µM (active); in assay [7] it was 1.28 µM (inactive); in assay [8] it was 0.191 µM (active); in assay [10] it was 0.428 µM (active); in assay [11] it was > 5.83 µM (inactive). In addition, the GI50 in assay [12] is 0.178 µM (active); in assay [13], 0.3 µM (active); in assay [15] it was 2.51 µM (inactive); in assay [16] it was 0.116 µM (active); in [17], 0.114 µM (active).
